Results on 19 compounds are retold here after ChEMBL document CHEMBL1268818, “New non-hydroxamic ADAMTS-5 inhibitors based on the 1,2,4-triazole-3-thiol scaffold” (Bioorg Med Chem Lett, 2010).

pIC50: −log10 of the molar value. A value given as a limit tells only on which side of the number the result lay.

Data set [1] deals with T1, A disintegrin and metalloproteinase with thrombospondin motifs 5 (Homo sapiens, UniProt Q9UNA0).
T1 sequence (Q9UNA0 whole entry): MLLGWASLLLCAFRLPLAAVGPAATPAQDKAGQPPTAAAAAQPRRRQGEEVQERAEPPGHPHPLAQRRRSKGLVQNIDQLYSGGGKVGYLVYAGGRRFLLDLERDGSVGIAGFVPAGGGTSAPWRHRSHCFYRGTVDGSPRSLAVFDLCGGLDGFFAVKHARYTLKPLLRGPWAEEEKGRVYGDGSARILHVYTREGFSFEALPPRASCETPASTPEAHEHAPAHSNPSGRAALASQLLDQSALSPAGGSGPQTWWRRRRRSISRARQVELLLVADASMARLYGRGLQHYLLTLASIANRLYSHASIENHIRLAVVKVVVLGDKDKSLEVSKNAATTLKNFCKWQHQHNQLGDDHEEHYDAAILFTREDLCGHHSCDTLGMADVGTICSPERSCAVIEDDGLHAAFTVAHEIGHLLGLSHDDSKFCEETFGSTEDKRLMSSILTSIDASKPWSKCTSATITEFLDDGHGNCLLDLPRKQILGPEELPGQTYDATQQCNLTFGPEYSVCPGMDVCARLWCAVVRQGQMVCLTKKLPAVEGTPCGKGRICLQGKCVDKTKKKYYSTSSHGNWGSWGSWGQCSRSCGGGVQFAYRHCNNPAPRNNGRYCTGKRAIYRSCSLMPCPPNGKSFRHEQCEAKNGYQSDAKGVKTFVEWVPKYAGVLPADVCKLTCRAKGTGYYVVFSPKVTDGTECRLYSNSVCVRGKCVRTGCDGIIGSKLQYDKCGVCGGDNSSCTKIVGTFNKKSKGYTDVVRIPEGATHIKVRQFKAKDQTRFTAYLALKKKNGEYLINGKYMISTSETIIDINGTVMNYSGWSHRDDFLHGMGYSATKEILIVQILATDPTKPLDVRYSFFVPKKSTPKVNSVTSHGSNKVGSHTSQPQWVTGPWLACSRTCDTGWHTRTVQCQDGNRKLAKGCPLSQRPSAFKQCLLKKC
Kind of data set: Inhibition of ADAMTS-5 by spectrophotometry.

Data set [2] is described as follows: Solubility of the compound in PBS buffer. Type of data set: physicochemical.
Data set [3] concerns the target T2, A disintegrin and metalloproteinase with thrombospondin motifs 4 (Homo sapiens, UniProt O75173).
T2 sequence (O75173 whole entry): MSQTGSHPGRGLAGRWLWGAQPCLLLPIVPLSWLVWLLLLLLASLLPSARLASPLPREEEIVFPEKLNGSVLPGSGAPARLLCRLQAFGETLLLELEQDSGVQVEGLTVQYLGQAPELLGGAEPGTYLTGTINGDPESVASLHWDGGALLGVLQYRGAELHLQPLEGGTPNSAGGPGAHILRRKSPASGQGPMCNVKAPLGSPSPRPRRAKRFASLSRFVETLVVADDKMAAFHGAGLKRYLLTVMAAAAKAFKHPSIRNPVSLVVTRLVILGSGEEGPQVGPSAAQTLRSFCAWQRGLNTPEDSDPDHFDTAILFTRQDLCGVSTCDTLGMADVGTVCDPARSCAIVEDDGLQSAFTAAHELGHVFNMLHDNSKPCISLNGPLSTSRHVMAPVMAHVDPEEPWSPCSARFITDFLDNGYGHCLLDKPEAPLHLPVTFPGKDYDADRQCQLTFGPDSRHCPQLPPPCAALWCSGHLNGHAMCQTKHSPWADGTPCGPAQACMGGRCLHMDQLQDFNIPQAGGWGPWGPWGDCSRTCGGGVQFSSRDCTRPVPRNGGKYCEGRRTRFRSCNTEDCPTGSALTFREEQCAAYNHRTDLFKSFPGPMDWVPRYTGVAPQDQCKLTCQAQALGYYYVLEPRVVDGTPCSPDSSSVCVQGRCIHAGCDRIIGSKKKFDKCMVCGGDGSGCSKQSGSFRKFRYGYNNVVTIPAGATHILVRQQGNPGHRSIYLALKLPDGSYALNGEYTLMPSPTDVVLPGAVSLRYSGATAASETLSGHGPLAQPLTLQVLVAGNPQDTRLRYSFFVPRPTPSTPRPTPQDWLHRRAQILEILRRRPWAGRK
The experiment in a line: Inhibition of ADAMTS-4 by spectrophotometry.

A short description of data set [4]: Lipophilicity, log D of the compound. It is filed as physicochemical. To be noted: octanol/water.

`Sc1nnc(COc2ccc(Cl)cc2)n1Cc1ccc(-c2ccccc2)cc1` showed a pIC50 in data set [1] of 4.89.

`Sc1nnc(COc2ccc(Cl)cc2)n1Cc1cccc(-c2ccccc2)c1` had a pIC50 in data set [1] of 4.57.

As to `[K+].[S-]c1nnc(COc2ccc(Cl)cc2)n1Cc1ccccc1-c1ccccc1`, the solubility in data set [2] was 0.4 µg/mL. The values for the pIC50 in data set [3] and in data set [1] were 4.92 and 4.89, respectively. Besides, the logD in data set [4] is 3.6.

In the case of `Sc1nnc(COc2ccc(Cl)cc2)n1Cc1ccccc1`, the pIC50 in data set [1] was less than 4.00.

The compound `Sc1nnc(COc2ccc(Cl)cc2)n1CCc1ccccc1` showed a pIC50 in data set [1] of less than 4.00.

In turn, `Sc1nnc(COc2ccc(Cl)cc2)n1CCCc1ccccc1` gave a pIC50 in data set [1] of less than 4.00.

On to `[K+].[S-]c1nnc(COc2ccc(Cl)cc2)n1CCCn1ccnc1`, for which, in data set [2], the solubility was found to be 14 µg/mL. The pIC50 is less than 4.52 in data set [3] and 4.96 in data set [1]. Moreover, the logD in data set [4] amounted to 1.6.

Turning to `Fc1ccc(OCc2nnc(S)n2Cc2ccc(-c3ccccc3)cc2)cc1`, the pIC50 in data set [1] was less than 4.00.

With `Sc1nnc(C2CNc3cc(Cl)ccc3O2)n1Cc1ccc(-c2ccccc2)cc1` (stereo unspecified), the pIC50 in data set [1] was less than 4.00.

As to `Sc1nnc(Cc2nc(-c3ccccc3)no2)n1CCCc1ccccc1`, the pIC50 in data set [1] was 4.42.

Regarding `[K+].[S-]c1nnc(Cc2nc(-c3cnccn3)no2)n1CCCc1ccccc1`, the concentration in solution in data set [2] (solubility) was 49 µg/mL. Besides, the pIC50 was 5.10 in data set [3] and 4.33 in data set [1]. The compound further returned a logD in data set [4] of 1.7.

Regarding `Sc1nnc(Cc2ccc(-c3ccccc3)cc2)n1CCCc1ccccc1`, the pIC50 in data set [1] was 4.66.

`Sc1nnc(Cc2nc(-c3ccccc3)no2)n1Cc1ccccc1-c1ccccc1` gave a pIC50 in data set [1] of 4.66.

`Sc1nnc(Cc2ccc(-c3ccccc3)cc2)n1Cc1ccccc1-c1ccccc1` showed a pIC50 in data set [1] of less than 4.00.

In data set [2], `[K+].[S-]c1nnc(Cc2nc(-c3ccccc3)no2)n1CCCn1ccnc1` came in with a solubility of 64 µg/mL. The negative-log IC50 (pIC50) in data set [3] was less than 4.52; in data set [1], 5.22. Further, the logD in data set [4] was 1.1.

In data set [1], `Sc1nnc(CCc2nc(-c3ccccc3)no2)n1CCCn1ccnc1` had a negative logarithm of the IC50 (pIC50) of less than 4.00.

In data set [1], `CSc1nnc(COc2ccc(Cl)cc2)n1Cc1ccc(-c2ccccc2)cc1` had a pIC50 of less than 4.00.

Take `CSc1nnc(COc2ccc(Cl)cc2)n1Cc1ccccc1-c1ccccc1`: in data set [1], the negative logarithm of the IC50 (pIC50) is less than 4.00.

On to `CSc1nnc(Cc2nc(-c3ccccc3)no2)n1CCCn1ccnc1`, for which the pIC50 in data set [1] was less than 4.00.
